This passage reports IC50 results from patent US10899738B2 (THE REGENTS OF THE UNIVERSITY OF MICHIGAN, priority 2016, dated 2021).

Read-outs that look alike come from different tables or passages of the source.

The nature of assay [1]: Cell growth inhibition, CellTiter-Glo Luminescent Cell Viability Assay. The assay is classed as cell-based. The essentials: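 Cells seeded at 2,000/well with serially diluted compound and cultured 4 days at 37 °C, 5% CO2. Viability read by CellTiter-Glo luminescence; IC50 derived from dose-response.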
On the technique in general: Cellular ATP, detected with luciferase, serves as a proxy for viable cell number.

A further assay has as its target menin protein (Homo sapiens (Human), UniProt O00255). The experiment in a line: biochemical. It counts as binding. To be noted: FP competitive binding; menin protein 4 nM, FAM-MM2 probe 2 nM; read-out: Menin Binding Affinity IC50. The essentials:
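Test compounds displaced FAM-MM2 (2 nM) from 4 nM menin after 30 min equilibration at room temperature in PBS buffer containing bovine γ-globulin, 4% DMSO and Triton X-100. Binding was followed by fluorescence polarization. Competition curves were fitted by nonlinear regression to give IC50 and Ki.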

Where [2] appears, read: MOLM-13, 96 h, read-out: Cell Growth Inhibition IC50 (μM) MOLM13, MOLM13 cells, 4 days, CellTiter-Glo.
Where [3] appears, read: MV4-11, 96 h, read-out: Cell Growth Inhibition IC50 (μM) MV4, 11, MV4, 11 cells, 4 days, CellTiter-Glo.
Setting [4] is: MOLM-13, 96 h, MOLM13 cells, 4 days, CellTiter-Glo, read-out: Cell Growth Inhibition IC50 (μM) MOLM13.
Where [5] appears, read: MV4-11, 96 h, MV4, 11 cells, 4 days, CellTiter-Glo, read-out: Cell Growth Inhibition IC50 (μM) MV4, 11.

Sequence of menin protein (O00255 whole entry): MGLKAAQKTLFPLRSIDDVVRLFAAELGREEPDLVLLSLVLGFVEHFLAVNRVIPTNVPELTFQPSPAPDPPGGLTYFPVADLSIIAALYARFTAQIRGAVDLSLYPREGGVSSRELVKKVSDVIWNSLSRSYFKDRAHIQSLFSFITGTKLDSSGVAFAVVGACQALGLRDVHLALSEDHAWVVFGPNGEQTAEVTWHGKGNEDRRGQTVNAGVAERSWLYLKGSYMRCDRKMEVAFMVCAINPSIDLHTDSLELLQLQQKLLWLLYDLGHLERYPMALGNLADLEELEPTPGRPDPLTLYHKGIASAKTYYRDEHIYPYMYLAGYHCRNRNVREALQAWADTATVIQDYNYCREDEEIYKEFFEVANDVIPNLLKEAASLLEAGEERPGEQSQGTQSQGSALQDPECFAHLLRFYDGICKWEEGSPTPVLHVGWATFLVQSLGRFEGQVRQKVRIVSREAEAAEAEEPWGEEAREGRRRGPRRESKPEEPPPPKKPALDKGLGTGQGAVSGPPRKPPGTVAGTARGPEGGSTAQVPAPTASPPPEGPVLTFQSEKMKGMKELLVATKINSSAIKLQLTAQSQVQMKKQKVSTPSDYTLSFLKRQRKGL

In the case of `N#CC(c1ccccc1)(C1CCN(CC2CN(c3ccc(S(=O)(=O)c4ccncc4)cc3)C2)CC1)[C@H]1CCC[C@@H]1OC(N)=O` (mixture of isomers) [compound 211, rac-(1S,2R)-2-(cyano(phenyl)(1-((1-(4-(pyridin-4-ylsulfonyl)phenyl)azetidin-3-yl)methyl)piperidin-4-yl)methyl)cyclopentyl carbamate], the figures for the 50% inhibitory concentration (IC50) (in assay [1] (setting [2]); in assay [1] (setting [3]); at menin protein) were 0.546 µM, 0.302 µM and 9 nM, respectively.

For `O=S(=O)(CC1CCCCC1)c1ccc(N2CC(CN3CCC(C4(C5CCCC5)NCCc5ccccc54)CC3)C2)cc1` (stereo not drawn) [compound 93, 1-(1-((1-(4-((cyclohexylmethyl)sulfonyl)phenyl)azetidin-3-yl)methyl)piperidin-4-yl)-1-cyclopentyl-1,2,3,4-tetrahydroisoquinoline], the IC50 in assay [1] (setting [4]) was found to be 1.1 ± 0.7 µM; in assay [1] (setting [5]) it was 0.779 ± 0.068 µM; at menin protein it was 52 nM.

For `CC(=O)N[C@H]1CCC[C@@H]1C(Cn1ccnc1)(c1ccccc1)C1CCN(CC2CN(c3ccc(S(=O)(=O)c4ccccc4)cc3)C2)CC1` (mixture of isomers) [compound 381, rac-N-((1S,2R)-2-(2-(1H-imidazol-1-yl)-1-phenyl-1-(1-((1-(4-(phenylsulfonyl)phenyl)azetidin-3-yl)methyl)piperidin-4-yl)ethyl)cyclopentyl) acetamide], the IC50 was 0.67 µM in assay [1] (setting [2]), 0.14 µM in assay [1] (setting [3]) and 13 nM at menin protein.

`CC(=O)N[C@@H]1CCC[C@H]1C1(C2CCN(CC3CN(c4ccc(S(=O)(=O)c5ccncc5)cc4)C3)CC2)CN(C)Cc2ccccc21` (mixture of isomers) [compound 272, rac-N-((1R,2S)-2-(2-methyl-4-(1-((1-(4-(pyridin-4-ylsulfonyl)phenyl)azetidin-3-yl)methyl)piperidin-4-yl)-1,2,3,4-tetrahydroisoquinolin-4-yl)cyclopentyl)acetamide]: the IC50 in assay [1] (setting [2]) was 2.97 µM; in assay [1] (setting [3]), 4.29 ± 1.45 µM; on menin protein, 180 nM.

For the compound `CCN1Cc2ccccc2C(C2CCCC2)(C2CCN(CC3CN(c4ccc(S(=O)(=O)CC5CC5)cc4)C3)CC2)C1` (stereo not drawn) [compound 143, 4-cyclopentyl-4-(1-((1-(4-((cyclopropylmethyl)sulfonyl)phenyl)azetidin-3-yl)methyl)piperidin-4-yl)-2-ethyl-1,2,3,4-tetrahydroisoquinoline], the IC50 in assay [1] (setting [4]) was determined as 3.4 ± 0.5 µM; in assay [1] (setting [5]), 1.2 ± 1 µM; at menin protein, 28 nM.

With `COC(=O)N[C@H]1CCC[C@@H]1C(C#N)(c1ccccc1)C1CCN(CC2CN(c3ccc(S(=O)(=O)C4CC5CCC4C5)cc3)C2)CC1` (mixture of isomers) [compound 396, methyl rac-((1S,2R)-2-((1-((1-(4-(bicyclo[2.2.1]heptan-2-ylsulfonyl)phenyl)azetidin-3-yl)methyl)piperidin-4-yl)(cyano)(phenyl)methyl)cyclopentyl)carbamate], the IC50 in assay [1] (setting [2]) was found to be 1.46 µM; in assay [1] (setting [3]), 0.46 µM; on menin protein, 12 nM.

For `O=S(=O)(c1ccncc1)c1ccc(N2CC(CN3CCC(C4(C5CCCC5)CNCc5ccccc54)CC3)C2)cc1` (stereo not drawn) [compound 51, 4-cyclopentyl-4-(1-((1-(4-(pyridin-4-ylsulfonyl)phenyl)azetidin-3-yl)methyl)piperidin-4-yl)-1,2,3,4-tetrahydroisoquinoline], the values for the concentration for half-maximal inhibition (IC50) (in assay [1] (setting [4]); in assay [1] (setting [5]); at menin protein) were 1.46 µM, 0.67 µM and 8 nM, respectively.

As to `O=S(=O)(c1ccc(N2CC(CN3CCC(C4(C5CCCC5)NCCc5ccccc54)CC3)C2)cc1)C1CCCCC1` (stereo not drawn) [compound 92, 1-(1-((1-(4-(cyclohexylsulfonyl)phenyl)azetidin-3-yl)methyl)piperidin-4-yl)-1-cyclopentyl-1,2,3,4-tetrahydroisoquinoline], the results for the IC50 (in assay [1] (setting [4]); in assay [1] (setting [5]); at menin protein) were 1.6 ± 0.1 µM, 0.961 ± 0.384 µM and 19 nM, respectively.

`CNC(=O)O[C@H]1CCC[C@@H]1C(C#N)(c1ccccc1)C1CCN(CC2CN(c3ccc(S(=O)(=O)c4cnn(C)c4)cc3)C2)CC1` (mixture of isomers) [compound 240, rac-(1S,2R)-2-(cyano(1-((1-(4-((1-methyl-1H-pyrazol-4-yl)sulfonyl)phenyl)azetidin-3-yl)methyl)piperidin-4-yl)(phenyl)methyl) cyclopentyl methylcarbamate]: the IC50 in assay [1] (setting [2]) came out at 0.54 µM; in assay [1] (setting [3]) it was 0.2 µM; at menin protein, 9 nM.

Turning to `CCN1Cc2ccccc2C(C2CCCC2)(C2CCN(CC3CN(c4ccc(S(=O)(=O)c5cccnc5)cc4)C3)CC2)C1` (stereo not drawn) [compound 152, 4-cyclopentyl-2-ethyl-4-(1-((1-(4-(pyridin-3-ylsulfonyl)phenyl)azetidin-3-yl)methyl)piperidin-4-yl)-1,2,3,4-tetrahydroisoquinoline], the IC50 in assay [1] (setting [4]) is 0.49 µM; in assay [1] (setting [5]) it was 0.46 µM; at menin protein, 9 nM.

Take `CC(=O)N[C@H]1CCC[C@@H]1C1(C2CCN(CC3CN(c4ccc(S(=O)(=O)c5cnn(C)c5)cc4)C3)CC2)CNCc2ccccc21` (mixture of isomers) [compound 286, rac-N-((1S,2R)-2-(4-(1-((1-(4-((1-methyl-1H-pyrazol-4-yl)sulfonyl)phenyl)azetidin-3-yl)methyl)piperidin-4-yl)-1,2,3,4-tetrahydroisoquinolin-4-yl)cyclopentyl)acetamide]: the IC50 worked out at 5.69 µM in assay [1] (setting [2]), 0.48 µM in assay [1] (setting [3]) and 4 nM at menin protein.

Consider `CN1Cc2ccccc2C(C2CCN(CC3CN(c4ccc(S(=O)(=O)c5ccncc5)cc4)C3)CC2)([C@H]2CCC[C@@H]2OC(N)=O)C1` (mixture of isomers) [compound 219, rac-(1S,2R)-2-(2-methyl-4-(1-((1-(4-(pyridin-4-ylsulfonyl)phenyl)azetidin-3-yl)methyl)piperidin-4-yl)-1,2,3,4-tetrahydroisoquinolin-4-yl)cyclopentyl carbamate], for which the IC50 in assay [1] (setting [2]) stood at 0.236 µM; in assay [1] (setting [3]) it was 0.074 ± 0.011 µM; at menin protein, 3 nM.

Take `CCN1Cc2ccccc2C(C2CCCC2)(C2CCN(CC3CN(c4ccc(S(=O)(=O)c5ccccc5)cc4)C3)CC2)C1` (stereo not drawn) [compound 147, 4-cyclopentyl-2-ethyl-4-(1-((1-(4-(phenylsulfonyl)phenyl)azetidin-3-yl)methyl)piperidin-4-yl)-1,2,3,4-tetrahydroisoquinoline]: the IC50 in assay [1] (setting [4]) came to 1.6 ± 0.8 µM; in assay [1] (setting [5]), 0.956 ± 0.727 µM; at menin protein, 9 nM.

Consider `CC(=O)O[C@H]1CCC[C@@H]1C(C#N)(c1ccccc1)C1CCN(CC2CN(c3ccc(S(=O)(=O)c4ccncc4)cc3)C2)CC1` (mixture of isomers) [compound 185, rac-(1S,2R)-2-(cyano(phenyl)(1-((1-(4-(pyridin-4-ylsulfonyl)phenyl)azetidin-3-yl)methyl)piperidin-4-yl)methyl)cyclopentyl acetate], for which the IC50 is 0.783 ± 0.474 µM in assay [1] (setting [2]), 0.624 ± 0.165 µM in assay [1] (setting [3]) and 7 nM on menin protein.

In the case of `CNC(=O)O[C@H]1CCC[C@@H]1C(Cn1ccnc1)(c1ccccc1)C1CCN(CC2CN(c3ccc(S(=O)(=O)c4ccc(C(=O)O)cc4)cc3)C2)CC1` (mixture of isomers) [compound 362, rac-4-((4-(3-((4-(2-(1H-imidazol-1-yl)-1-((1R,2S)-2-((methylcarbamoyl)oxy)cyclopentyl)-1-phenylethyl)piperidin-1-yl)methyl)azetidin-1-yl)phenyl)sulfonyl)benzoic acid], the concentration for half-maximal inhibition (IC50) is greater than 10 µM in assay [1] (read-out: Cell Growth Inhibition IC50 (μM) MOLM13, MOLM13 cells, 4 days, CellTiter-Glo); 4.79 µM in assay [1] (read-out: Cell Growth Inhibition IC50 (μM) MV4, 11, MV4, 11 cells, 4 days, CellTiter-Glo); 8 nM on menin protein.

On to `CNS(=O)(=O)c1ccc(N2CC(CN3CCC(C4(C5CCCC5)NCCc5c(F)cccc54)CC3)C2)cc1` (stereo not drawn) [compound 119, 4-(3-((4-(1-cyclopentyl-5-fluoro-1,2,3,4-tetrahydroisoquinolin-1-yl)piperidin-1-yl)methyl)azetidin-1-yl)-N-methylbenzenesulfonamide], for which the IC50 in assay [1] (setting [4]) was determined as 1.3 µM; in assay [1] (setting [5]), 1.8 µM; on menin protein, 15 nM.

With `CNC(=O)N[C@H]1CCC[C@@H]1C1(C2CCN(CC3CN(c4ccc(S(=O)(=O)C5CC5)cc4)C3)CC2)CN(C(C)C)Cc2ccccc21` (mixture of isomers) [compound 288, rac-1-((1S,2R)-2-(4-(1-((1-(4-(cyclopropylsulfonyl)phenyl)azetidin-3-yl)methyl)piperidin-4-yl)-2-isopropyl-1,2,3,4-tetrahydroisoquinolin-4-yl)cyclopentyl)-3-methylurea], the figures for the IC50 (in assay [1] (setting [2]); in assay [1] (setting [3]); at menin protein) were 48.8 µM, 0.35 µM and 12 nM, respectively.

Take `O=S(=O)(CC1CCC1)c1ccc(N2CC(CN3CCC(C4(C5CCCC5)NCCc5ccccc54)CC3)C2)cc1` (stereo not drawn) [compound 86, 1-(1-((1-(4-((cyclobutylmethyl)sulfonyl)phenyl)azetidin-3-yl)methyl)piperidin-4-yl)-1-cyclopentyl-1,2,3,4-tetrahydroisoquinoline]: the figures for the half-maximal inhibitory concentration (IC50) (in assay [1] (setting [4]); in assay [1] (setting [5]); on menin protein) were 1.2 ± 0.5 µM, 0.864 ± 0.017 µM and 55 nM, respectively.

On to `CC(=O)O[C@H]1CCC[C@@H]1C(C#N)(c1ccccc1)C1CCN(CC2CN(c3ccc(S(=O)(=O)C4CC4)cc3)C2)CC1` (mixture of isomers) [compound 187, rac-(1S,2R)-2-(cyano(1-((1-(4-(cyclopropylsulfonyl)phenyl)azetidin-3-yl)methyl)piperidin-4-yl)(phenyl)methyl)cyclopentyl acetate], for which the IC50 in assay [1] (setting [2]) was found to be 1.9 ± 0.7 µM; in assay [1] (setting [3]) it was 1.2 ± 0.3 µM; at menin protein, 18 nM.

One may read the IC50 as the concentration at which inhibition is half-maximal.
